Measurements reported in patent US7772241B2, “Variolin derivatives and their use as antitumor agents” (Pharma Mar S.A., priority 2001, dated 2010).

Columns and labels:
HT-29 = experiment: Inhibition of cells growth by colorimetric (SRB) assay, HT-29; conditions: for GI50 / CC50: Homo sapiens, HT-29, 48 h; for GI50: read-out: GI50 HT-29, SRB assay, 48 hours exposure; for CC50: read-out: LC50 HT-29, SRB assay, 48 hours exposure; for TGI HT-29: SRB assay, 48 hours exposure
From the text: (§1) The finality of these assays is to interrupt the growth of a “in vitro” tumor cell culture by means a continued exhibition of the cells to the sample to be testing.
(§2) This form of the assay employs 96 well cell culture microplates of 9 mm diameter (Faircloth, 1988; Mosmann, 1983). Most of the cell lines are obtained from American Type Culture Collection (ATCC) derived from different human cancer types.
(§3) Cells are maintained in RPMI 1640 10% FBS, supplemented with 0.1 g/l penicillin and 0.1 g/l streptomycin sulphate and then incubated at 37° C., 5% CO2 and 98% humidity. For the experiments, cells were harvested from subconfluent cultures using trypsin and resuspended in fresh medium before plating.
(§4) Cells are seeded in 96 well microtiter plates, at 5×10^3 cells per well in aliquots of 195 μl medium, and they are allowed to attach to the plate surface by growing in drug free medium for 18 hours. Afterward, samples are added in aliquots of 5 μl in a ranging from 10 to 10^−8 μg/ml, dissolved in DMSO/EtOH/PBS (0.5:0.5:99). After 48 hours exposure, the antitumor effect are measured by the SRB methodology: cells are fixed by adding 50 μl of cold 50% (wt/vol) trichloroacetic acid (TCA) and incubating for 60 minutes at 4° C. Plates are washed with deionized water and dried. One hundred μl of SRB solution (0.4% wt/vol in 1% acetic acid) is added to each microtiter well and incubated for 10 minutes at room temperature. Unbound SRB is removed by washing with 1% acetic acid. Plates are air dried and bound stain is solubilized with Tris buffer. Optical densities are read on a automated spectrophotometric plate reader at a single wavelength of 490 nm.
(§5) The values for mean +/−SD of data from triplicate wells are calculated. Some parameters for cellular responses can be calculated: GI=growth inhibition, TGI=total growth inhibition (cytostatic effect) and LC=cell killing (cytotoxic effect).

DU-145 = experiment: Inhibition of cells growth by colorimetric (SRB) assay, DU-145; conditions: for GI50 / CC50: Homo sapiens, DU-145, 48 h; for GI50: read-out: GI50 DU-145, SRB assay, 48 hours exposure; for CC50: read-out: LC50 DU-145, SRB assay, 48 hours exposure; for TGI DU-145: SRB assay, 48 hours exposure
From the text: as §1, §2, §3, §4, §5

LoVo = experiment: Inhibition of cells growth by colorimetric (SRB) assay, LoVo; conditions: for GI50 / CC50: Homo sapiens, LoVo, 48 h; for GI50: read-out: GI50 LOVO, SRB assay, 48 hours exposure; for CC50: read-out: LC50 LOVO, SRB assay, 48 hours exposure; for TGI LOVO: SRB assay, 48 hours exposure
From the text: as §1, §2, §3, §4, §5

SK-MEL-28 = experiment: Inhibition of cells growth by colorimetric (SRB) assay, SK-MEL-28; conditions: for GI50 / CC50: Homo sapiens, SK-MEL-28, 48 h; for GI50: read-out: GI50 MEL-28, SRB assay, 48 hours exposure; for CC50: read-out: LC50 MEL-28, SRB assay, 48 hours exposure; for TGI MEL-28: SRB assay, 48 hours exposure
From the text: as §1, §2, §3, §4, §5

IGROV-1 = experiment: Inhibition of cells growth by colorimetric (SRB) assay, IGROV-1; conditions: for GI50 / CC50: Homo sapiens, IGROV-1, 48 h; for GI50: read-out: GI50 IGROV, SRB assay, 48 hours exposure; for CC50: read-out: LC50 IGROV, SRB assay, 48 hours exposure; for TGI IGROV: SRB assay, 48 hours exposure
From the text: as §1, §2, §3, §4, §5

IGROV-ET = experiment: Inhibition of cells growth by colorimetric (SRB) assay, IGROV-ET; conditions: for GI50 / CC50: Homo sapiens, 48 h; for GI50: read-out: GI50 IGROV-ET, SRB assay, 48 hours exposure; for CC50: read-out: LC50 IGROV-ET, SRB assay, 48 hours exposure; for TGI IGROV-ET: SRB assay, 48 hours exposure
From the text: as §1, §2, §3, §4, §5

LoVo-Dox = experiment: Inhibition of cells growth by colorimetric (SRB) assay, LoVo-Dox; conditions: for GI50 / CC50: Homo sapiens, 48 h; for GI50: read-out: GI50 LOVO-DOX, SRB assay, 48 hours exposure; for CC50: read-out: LC50 LOVO-DOX, SRB assay, 48 hours exposure; for TGI LOVO-DOX: SRB assay, 48 hours exposure
From the text: as §1, §2, §3, §4, §5

K-562 = experiment: Inhibition of cells growth by colorimetric (SRB) assay, K-562; conditions: for GI50 / CC50: Homo sapiens, K562, 48 h; for GI50: read-out: GI50 K-562, SRB assay, 48 hours exposure; for CC50: read-out: LC50 K-562, SRB assay, 48 hours exposure; for TGI K-562: SRB assay, 48 hours exposure
From the text: as §1, §2, §3, §4, §5

PANC-1 = experiment: Inhibition of cells growth by colorimetric (SRB) assay, PANC-1; conditions: for GI50 / CC50: Homo sapiens, PANC-1, 48 h; for GI50: read-out: GI50 PANC-1, SRB assay, 48 hours exposure; for CC50: read-out: LC50 PANC-1, SRB assay, 48 hours exposure; for TGI PANC-1: SRB assay, 48 hours exposure
From the text: as §1, §2, §3, §4, §5

SK-OV-3 = experiment: Inhibition of cells growth by colorimetric (SRB) assay, SK-OV-3; conditions: for GI50 / CC50: Homo sapiens, SK-OV-3, 48 h; for GI50: read-out: GI50 SKOV-3, SRB assay, 48 hours exposure; for CC50: read-out: LC50 SKOV-3, SRB assay, 48 hours exposure; for TGI SKOV-3: SRB assay, 48 hours exposure
From the text: as §1, §2, §3, §4, §5

A-549 = experiment: Inhibition of cells growth by colorimetric (SRB) assay, A-549; conditions: for GI50 / CC50: Homo sapiens, A549, 48 h; for GI50: read-out: GI50 A-549, SRB assay, 48 hours exposure; for CC50: read-out: LC50 A-549, SRB assay, 48 hours exposure; for TGI A-549: SRB assay, 48 hours exposure
From the text: as §1, §2, §3, §4, §5

LNCaP = experiment: Inhibition of cells growth by colorimetric (SRB) assay, LNCaP; conditions: for GI50 / CC50: Homo sapiens, LNCaP, 48 h; for GI50: read-out: GI50 LN-caP, SRB assay, 48 hours exposure; for CC50: read-out: LC50 LN-caP, SRB assay, 48 hours exposure; for TGI LN-caP: SRB assay, 48 hours exposure
From the text: as §1, §2, §3, §4, §5

Row | SMILES | GI50 (HT-29) | CC50 (HT-29) | TGI HT-29 (HT-29) | GI50 (DU-145) | CC50 (DU-145) | TGI DU-145 (DU-145) | GI50 (LoVo) | CC50 (LoVo) | TGI LOVO (LoVo) | GI50 (SK-MEL-28) | CC50 (SK-MEL-28) | TGI MEL-28 (SK-MEL-28) | GI50 (IGROV-1) | CC50 (IGROV-1) | TGI IGROV (IGROV-1) | GI50 (IGROV-ET) | CC50 (IGROV-ET) | TGI IGROV-ET (IGROV-ET) | GI50 (LoVo-Dox) | CC50 (LoVo-Dox) | further results
1 | Nc1nccc2c(-c3cccc([N+](=O)[O-])c3)c3cccnc3n12 [Compound 64] | 32.8 µM | 32.8 µM | 3.28E−05 | 31 µM | 32.8 µM | 3.28E−05 | 23.3 µM | 32.8 µM | 3.28E−05 | 21.7 µM | 32.8 µM | 3.28E−05 | 14.4 µM | 32.8 µM | 3.28E−05 | 18.9 µM | 32.8 µM | 3.28E−05 | 22.7 µM | 32.8 µM | TGI LOVO-DOX (LoVo-Dox): 3.28E−05; GI50 (K-562): 9.24 µM; CC50 (K-562): 32.8 µM; TGI K-562 (K-562): 2.47E−05; GI50 (PANC-1): 20.9 µM; CC50 (PANC-1): 32.8 µM; TGI PANC-1 (PANC-1): 3.28E−05; GI50 (SK-OV-3): 22.3 µM; CC50 (SK-OV-3): 32.8 µM; TGI SKOV-3 (SK-OV-3): 3.28E−05; GI50 (A-549): 31.6 µM; CC50 (A-549): 32.8 µM; TGI A-549 (A-549): 3.28E−05; GI50 (LNCaP): 2.84 µM; CC50 (LNCaP): 19.9 µM; TGI LN-caP (LNCaP): 7.89E−06
2 | CC(C)c1c2cccnc2n2c(N)nccc12 [Compound 66] | 17.9 µM | ≥ 44.2 µM | 4.42E−05 | 10 µM | ≥ 44.2 µM | 2.59E−05 | 17.1 µM | ≥ 44.2 µM | 4.42E−05 | 8.84 µM | 39.6 µM | 1.87E−05 | 9.99 µM | 30.4 µM | 1.74E−05 | 9.81 µM | 39.8 µM | 1.98E−05 | 2.22 µM | ≥ 44.2 µM | TGI LOVO-DOX (LoVo-Dox): 4.42E−05; GI50 (K-562): 21.6 µM; CC50 (K-562): ≥ 44.2 µM; TGI K-562 (K-562): 4.42E−05; GI50 (PANC-1): 8 µM; CC50 (PANC-1): ≥ 44.2 µM; TGI PANC-1 (PANC-1): 2.16E−05; GI50 (SK-OV-3): 15.7 µM; CC50 (SK-OV-3): ≥ 44.2 µM; TGI SKOV-3 (SK-OV-3): 3.04E−05; GI50 (A-549): 16.1 µM; CC50 (A-549): ≥ 44.2 µM; TGI A-549 (A-549): 4.42E−05; GI50 (LNCaP): 12.5 µM; CC50 (LNCaP): ≥ 44.2 µM; TGI LN-caP (LNCaP): 2.55E−05
3 | Cl.Nc1nccc2c(-c3ccncn3)c3cccnc3n12 [Compound 71] | 1.1 µM | 33.5 µM | 3.35E−06 | 0.75 µM | 33.5 µM | 2.31E−06 | 0.318 µM | 33.5 µM | 1.84E−06 | 0.556 µM | 2.5 µM | 1.18E−06 | 0.797 µM | 4.15 µM | 1.65E−06 | 1.04 µM | 31.9 µM | 2.75E−06 | 0.465 µM | 33.5 µM | TGI LOVO-DOX (LoVo-Dox): 1.79E−06; GI50 (K-562): 1.7 µM; CC50 (K-562): 33.5 µM; TGI K-562 (K-562): 1.30E−05; GI50 (PANC-1): 1.07 µM; CC50 (PANC-1): 33.5 µM; TGI PANC-1 (PANC-1): 3.78E−06; GI50 (SK-OV-3): 1.06 µM; CC50 (SK-OV-3): 33.5 µM; TGI SKOV-3 (SK-OV-3): 3.00E−06; GI50 (A-549): 1.1 µM; CC50 (A-549): 11.2 µM; TGI A-549 (A-549): 2.70E−06; GI50 (LNCaP): 0.0502 µM; CC50 (LNCaP): 1.82 µM; TGI LN-caP (LNCaP): 2.15E−07
4 | Nc1nccc2c(-c3ccnc(O)n3)c3cccnc3n12 [Compound 80] | 2.45 µM | 35.9 µM | 3.59E−05 | 1.81 µM | 35.9 µM | 8.70E−06 | 4.06 µM | 35.9 µM | 1.48E−05 | 2.42 µM | 19.7 µM | 7.08E−06 | 1.55 µM | 24.8 µM | 3.26E−06 | 2.48 µM | 35.9 µM | 9.45E−06 | 4.2 µM | 35.9 µM | TGI LOVO-DOX (LoVo-Dox): 2.01E−05; GI50 (K-562): 9.88 µM; CC50 (K-562): 35.9 µM; TGI K-562 (K-562): 3.59E−05; GI50 (PANC-1): 8.41 µM; CC50 (PANC-1): 35.9 µM; TGI PANC-1 (PANC-1): 2.42E−05; GI50 (SK-OV-3): 12.5 µM; CC50 (SK-OV-3): 35.9 µM; TGI SKOV-3 (SK-OV-3): 3.45E−05; GI50 (A-549): 7.73 µM; CC50 (A-549): 32.7 µM; TGI A-549 (A-549): 1.59E−05; GI50 (LNCaP): 0.97 µM; CC50 (LNCaP): 2.79 µM; TGI LN-caP (LNCaP): 1.65E−06
